Experimental data: ChEMBL document CHEMBL1201862, “PubChem BioAssay data set” (2004)
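Cultured in 96-well plates, cells were exposed to test compound for 48 hours across five concentrations. The concentration for 50% growth inhibition is given as GI50.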 Activity calls are given as the source filed them. No stated cut-off is given here; in the data, active = GI50 up to about 1.1 µM and inactive = higher.

Columns and labels:
Experiment in all cases: inhibition of tumour cell growth, NCI panel, 48 h
786-0 = tested on: 786-0
ACHN = tested on: ACHN
CAKI-1 = tested on: CAKI-1
COLO 205 = tested on: COLO 205
HCT-116 = tested on: HCT-116
HL-60 = tested on: HL-60
KM12 = tested on: KM12
MOLT-4 = tested on: MOLT-4
Malme-3M = tested on: Malme-3M
NCI-H460 = tested on: NCI-H460
SF-268 = tested on: SF-268
SK-MEL-5 = tested on: SK-MEL-5
SR = tested on: SR
SW-620 = tested on: SW-620
U-251 = tested on: U-251
UACC-62 = tested on: UACC-62
UO-31 = tested on: UO-31

Measured: GI50

CC(O)c1ccc(C(O)/C(=N\NC(=O)c2ccncc2)c2nc3ccc([N+](=O)[O-])cc3nc2O)cc1 (stereo not given)
inactive: 786-0 > 100 µM | ACHN 42.4 µM | CAKI-1 52.8 µM | COLO 205 > 100 µM | HCT-116 > 100 µM | HL-60 50.5 µM | KM12 49 µM | MOLT-4 > 100 µM | Malme-3M > 100 µM | NCI-H460 > 100 µM | SF-268 > 100 µM | SK-MEL-5 > 100 µM | SR 75 µM | SW-620 > 100 µM | U-251 > 100 µM | UACC-62 59.2 µM | UO-31 > 100 µM

O=C(NCc1ccncc1)C1COc2cc(-c3cc(=O)c4ccccc4o3)ccc2O1 (stereo not given)
inactive: 786-0 > 100 µM | ACHN > 100 µM | HCT-116 > 100 µM | HL-60 > 100 µM | KM12 > 100 µM | MOLT-4 > 100 µM | Malme-3M > 100 µM | NCI-H460 > 100 µM | SK-MEL-5 > 100 µM | SR > 100 µM | SW-620 > 100 µM | U-251 > 100 µM | UACC-62 > 100 µM | UO-31 > 100 µM

COc1ccc(OC)c(NC(=O)C(=O)CC(=O)c2sc(-n3nc(-c4ccccc4)cc3-c3ccccc3)nc2C)c1
inactive: 786-0 > 100 µM | CAKI-1 > 100 µM | COLO 205 > 100 µM | HCT-116 > 100 µM | HL-60 > 100 µM | KM12 > 100 µM | MOLT-4 > 100 µM | Malme-3M > 100 µM | NCI-H460 > 100 µM | SR 27.7 µM | SW-620 > 100 µM | U-251 > 100 µM | UACC-62 > 100 µM | UO-31 > 100 µM

N/C(=N\O)N/N=C\c1c2ccccc2c(Cl)c2ccccc12
inactive: 786-0 12.6 µM | ACHN 4.33 µM | CAKI-1 5.52 µM | COLO 205 3.67 µM | HCT-116 3.66 µM | HL-60 2.19 µM | KM12 4.85 µM | MOLT-4 4.18 µM | Malme-3M 4.6 µM | NCI-H460 2.23 µM | SF-268 7.5 µM | SK-MEL-5 5 µM | SW-620 5.22 µM | U-251 7.5 µM | UACC-62 1.92 µM | UO-31 10.7 µM

COC1(OC)CC2C(=O)N(Cc3ccccc3)C1C=C2S(=O)(=O)c1ccccc1 (stereo not given)
inactive: 786-0 19.7 µM | ACHN 20.8 µM | COLO 205 10.2 µM | HCT-116 13.8 µM | HL-60 11.7 µM | KM12 17.4 µM | MOLT-4 16.5 µM | Malme-3M 20.4 µM | NCI-H460 18.2 µM | SF-268 37 µM | SK-MEL-5 13.8 µM | SR 15 µM | SW-620 15.2 µM | U-251 15.5 µM | UACC-62 16.7 µM | UO-31 25 µM

CC1(C2COC(=O)C2)SCCCS1 (stereo not given)
inactive: 786-0 > 100 µM | ACHN > 100 µM | CAKI-1 > 100 µM | COLO 205 > 100 µM | HCT-116 > 100 µM | HL-60 > 100 µM | KM12 98.4 µM | MOLT-4 > 100 µM | Malme-3M > 100 µM | NCI-H460 > 100 µM | SF-268 > 100 µM | SK-MEL-5 > 100 µM | SR > 100 µM | SW-620 > 100 µM | UACC-62 > 100 µM | UO-31 14.2 µM

CC(=O)Nc1ccc(-c2nnc(SCC(=O)Nc3ccc([N+](=O)[O-])cc3)o2)cc1
inactive: 786-0 11.3 µM | ACHN 15.4 µM | CAKI-1 14.3 µM | COLO 205 14.2 µM | HCT-116 12.5 µM | HL-60 > 100 µM | KM12 14.5 µM | MOLT-4 12.2 µM | Malme-3M 14 µM | NCI-H460 15.2 µM | SF-268 14.1 µM | SK-MEL-5 13.1 µM | SR 3.18 µM | SW-620 16.2 µM | U-251 14.7 µM | UACC-62 9.84 µM | UO-31 18.9 µM

CC(=O)Nc1ccccc1-c1nc2ccccc2nc1-c1ccccc1
inactive: 786-0 > 100 µM | ACHN > 100 µM | CAKI-1 > 100 µM | COLO 205 > 100 µM | HCT-116 > 100 µM | HL-60 > 100 µM | KM12 > 100 µM | MOLT-4 > 100 µM | NCI-H460 > 100 µM | SR > 100 µM | SW-620 > 100 µM | U-251 > 100 µM | UACC-62 > 100 µM | UO-31 54.7 µM

N#C/C(=C\c1ccccc1F)C(=O)c1ccccc1
inactive: 786-0 > 100 µM | ACHN > 100 µM | CAKI-1 > 100 µM | COLO 205 > 100 µM | HCT-116 > 100 µM | HL-60 66.7 µM | KM12 > 100 µM | MOLT-4 > 100 µM | Malme-3M > 100 µM | SF-268 > 100 µM | SK-MEL-5 > 100 µM | SR > 100 µM | SW-620 > 100 µM | U-251 > 100 µM | UACC-62 > 100 µM | UO-31 > 100 µM

CC(C)(C)C(=O)OCC(COC(=O)C(C)(C)C)[N+](=O)[O-]
inactive: 786-0 > 100 µM | ACHN > 100 µM | CAKI-1 > 100 µM | COLO 205 57.1 µM | HCT-116 > 100 µM | HL-60 27.4 µM | KM12 > 100 µM | MOLT-4 80.2 µM | Malme-3M > 100 µM | NCI-H460 > 100 µM | SF-268 > 100 µM | SR 42.4 µM | SW-620 > 100 µM | U-251 > 100 µM | UACC-62 47.6 µM | UO-31 > 100 µM

CC(=O)OCC1OC(n2c(-c3ccc(N)cc3)cc(-c3ccco3)c(C#N)c2=O)C(OC(C)=O)C(OC(C)=O)C1OC(C)=O (stereo not given)
inactive: 786-0 14.2 µM | ACHN > 50 µM | CAKI-1 > 50 µM | COLO 205 > 50 µM | HCT-116 2.3 µM | KM12 7.29 µM | MOLT-4 > 50 µM | Malme-3M > 50 µM | SF-268 11.5 µM | SK-MEL-5 8.93 µM | SR > 50 µM | SW-620 > 50 µM | U-251 7.06 µM | UACC-62 37.2 µM | UO-31 > 50 µM

ClC1=C(Cl)C(Cl)(Cl)c2c3c(c4c(c21)C(Cl)(Cl)C(Cl)=C4Cl)C(Cl)(Cl)C(Cl)=C3Cl
inactive: 786-0 > 100 µM | ACHN > 100 µM | COLO 205 > 100 µM | HCT-116 > 100 µM | HL-60 > 100 µM | KM12 > 100 µM | MOLT-4 > 100 µM | Malme-3M > 100 µM | NCI-H460 > 100 µM | SF-268 > 100 µM | SK-MEL-5 > 100 µM | SR > 100 µM | SW-620 > 100 µM | U-251 > 100 µM
